The source of these data is article PMC5234788 (PLoS ONE, 2017).

Experiment [1] deals with T1, 5-HT1A receptors in rat hippocampus (Rattus norvegicus, UniProt P19327).
T1 construct: rat hippocampal tissues highly expressing 5-HT1A receptors were prepared as previously described; from tissue; host or cells: SD rat hippocampus membranes
As to the kind of experiment: [35S]GTPγS assay for 5-HT1A receptor activity in rat hippocampus. The class given is biochemical. Particulars: rat hippocampus membranes; read-out: EC50, increase in [35S]GTPγS binding. From the text:
(§1) D2-D4 dopamine receptors and 5-HT1A serotonin receptors are Gαi-coupled receptors that mediate inhibitory neurotransmission. We conducted [^35S]GTPγS assays to determine the agonist or antagonist properties of l-THBr at D2 dopamine receptors or 5-HT1A serotonin receptors. HEK293 cells stably expressing D2 receptors were provided by the Beijing Institute of Pharmacology and Toxicology (Beijing, China). The membrane preparation of D2-expressing HEK293 cells and rat hippocampal tissues highly expressing 5-HT1A receptors were prepared as previously described. Briefly, 10 SD rats were anesthetized and decapitated, and the hippocampi were quickly dissected and stored at -80°C until use. D2 receptor-expressing HEK293 cells and the hippocampal tissue were each homogenized at 4°C in 50 mM Tris-HCl buffer (pH 7.4). The homogenates were centrifuged at 2500 × g for 6 min, and the supernatant was further centrifuged for 20 min at 40000 × g. Membranes were re-suspended in Tris-HCl buffer and stored at -80°C until use.
(§2) [^35S]GTPγS assays were performed in a total volume of 0.5 ml at 4°C. […] Bound radioactivity was determined by liquid scintillation counting. Drug effects were expressed as drug-induced increase in binding over basal binding (binding in the absence of drugs). […] The inhibitory effect of l–THBr was determined by a similar equation to obtain the IC50 values.

For experiment [2], the system named is T2, Glutamate, NMDA, Glycine (stry-insens Site (Ionotropic)).
T2 construct: Caliper Lifescience
As to the kind of experiment: Radio-ligand binding assay, Glutamate NMDA glycine site. The following applies: 10 μM l-THBr; radioligand [3H]-MDL-105,519. The procedure: (§3) To determine the possible targets of l-THBr action, the binding affinities of l-THBr to neurotransmitter receptors known to be involved in sedation, hypnosis and anxiety were investigated. Radio-ligand binding assays were performed by Caliper Lifescience (Hopkinton, MA, USA). The screening was carried out at a concentration of 10 μM l–THBr to test its ability to inhibit the binding of radioligands to their corresponding receptors. The results were expressed as percentage of inhibition of labeled ligand binding to individual receptors. Significant binding activity was defined as ≥50%.

In a further experiment the test system is T3, GABA-B.
T3 construct: Caliper Lifescience
As to the kind of experiment: Radio-ligand binding assay, GABA-B. Particulars: 10 μM l-THBr; radioligand [3H]CGP 54626A. The procedure:
as §3

A further experiment concerns T4, Dopamine, D3.
T4 construct: Caliper Lifescience
Nature of the experiment: Radio-ligand binding assay, Dopamine D3. The following applies: 10 μM l-THBr. The procedure:
as §3

For another experiment, the system named is T5, Serotonin, 5HT7 (h).
T5 construct: Caliper Lifescience
As to the kind of experiment: Radio-ligand binding assay, Serotonin 5HT7. More on the design: species or system human. The following applies: 10 μM l-THBr. The procedure:
as §3

Experiment [3] deals with T6, human D2 dopamine receptor (Homo sapiens, UniProt P14416).
T6 construct: host or cells: HEK293
T6 sequence (P14416 whole entry): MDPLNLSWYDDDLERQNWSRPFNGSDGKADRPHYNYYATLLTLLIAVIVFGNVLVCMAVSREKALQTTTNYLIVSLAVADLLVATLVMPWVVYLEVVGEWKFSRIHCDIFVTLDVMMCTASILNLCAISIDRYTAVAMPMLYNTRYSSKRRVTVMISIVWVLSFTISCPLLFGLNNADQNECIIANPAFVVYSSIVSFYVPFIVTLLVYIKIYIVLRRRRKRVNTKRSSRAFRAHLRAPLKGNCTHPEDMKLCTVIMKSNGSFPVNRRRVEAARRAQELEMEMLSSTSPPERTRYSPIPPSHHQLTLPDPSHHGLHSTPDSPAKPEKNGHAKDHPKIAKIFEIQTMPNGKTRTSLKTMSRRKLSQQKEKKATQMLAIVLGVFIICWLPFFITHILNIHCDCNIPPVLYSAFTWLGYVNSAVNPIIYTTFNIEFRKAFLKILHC
Nature of the experiment: biochemical. The class given is biochemical.
From the text: as §1, §2

The subject of experiment [4] is Glycline, Strychnine-sensitive. Nature of the experiment: Radio-ligand binding assay, Glycine strychnine-sensitive. Particulars: 10 μM l-THBr; radioligand [3H]Strchnine. The procedure:
as §3

For the next experiment, the system named is T7, Dopamine Transporter.
T7 construct: Caliper Lifescience
Nature of the experiment: Radio-ligand binding assay, Dopamine Transporter. The following applies: 10 μM l-THBr; radioligand [3H]WIN 35,428. The procedure:
as §3

A further experiment deals with T8, Serotonin Transporter.
T8 construct: Caliper Lifescience
As to the kind of experiment: Radio-ligand binding assay, Serotonin Transporter. Particulars: 10 μM l-THBr; radioligand [3H]Citalopram,N-Methyl. The procedure:
as §3

For another experiment, the system named is T9, Serotonin, 5HT2A.
T9 construct: Caliper Lifescience
Nature of the experiment: Radio-ligand binding assay, Serotonin 5HT2A. Particulars: 10 μM l-THBr; radioligand [3H]Ketanserin. The procedure:
as §3

For the next experiment, the system named is GABA A, Agonist Site. As to the kind of experiment: Radio-ligand binding assay, GABA A agonist site. Particulars: 10 μM l-THBr; radioligand [3H]GABA. The procedure: as §3
For the next experiment, the system named is T10, Serotonin, 5HT5A (h).
T10 construct: Caliper Lifescience
Nature of the experiment: Radio-ligand binding assay, Serotonin 5HT5A. More on the design: species or system human. The following applies: 10 μM l-THBr; radioligand [3H]-LSD. The procedure: as §3

The subject of the next experiment is male CD-1 ICR mice. Nature of the experiment: Elevated plus-maze test. The class given is in vivo. The text has this: The elevated plus-maze test is widely used for the screening and evaluation of anxiolytic drugs. The apparatus consists of two open arms (30 cm × 5 cm) and two enclosed arms (30 cm × 5 cm × 15 cm), which is elevated 45 cm above the ground. The entire maze was made of clear Plexiglas and illuminated by four 30 W white lights with 300 lx light intensity arranged as a cross 100 cm above the maze. 48 male CD-1 ICR mice were randomly divided into either the vehicle group, one of three doses of l–THBr groups, or the diazepam group. 30 min after injection, mice were gently placed on the center platform facing an open arm, and the number of entries and the time spent in both arms were recorded by a video camera for 5 min. The results were expressed as the percentage of entries into the open arms (%) = (the number of entries into the open arms / the total number of entries into the four arms) × 100%; and the percentage of time spent in the open arms (%) = (time spent in the open arms / total time spent in the four arms) × 100%.
In a separate experiment, WAY100635 (a 5-HT1A antagonist) was used to test whether the anxiolytic-like activity of l-THBr is mediated by the activation of the 5-HT1A receptor. Forty male CD-1 ICR mice were randomly divided into one of four groups: vehicle, WAY100635 (3 mg/kg, i.p.), l–THBr (5 mg/kg, i.p.) or WAY100635 (3 mg/kg, i.p.) + l–THBr (5 mg/kg, i.p.). Mice were administered vehicle or WAY100635 followed by vehicle or l–THBr (5 mg/kg) injections 15 min later. The test was performed 30 min after the administration of l-THBr or vehicle.

Experiment [5] deals with Glutamate, MK-801 (Ionotropic). As to the kind of experiment: Radio-ligand binding assay, Glutamate MK-801. The following applies: 10 μM l-THBr; radioligand [3H] MK-801. The procedure: as §3
In a further experiment the test system is T11, Serotonin, 5HT1D.
T11 construct: Caliper Lifescience
Nature of the experiment: Radio-ligand binding assay, Serotonin 5HT1D. Particulars: 10 μM l-THBr; radioligand [3H]5-CT. The procedure:
as §3

The mark [6] stands for this setting: l-THBr 1 or 5 mg/kg, i.p., P < 0.05 vs control.

T1 sequence (P19327 whole entry): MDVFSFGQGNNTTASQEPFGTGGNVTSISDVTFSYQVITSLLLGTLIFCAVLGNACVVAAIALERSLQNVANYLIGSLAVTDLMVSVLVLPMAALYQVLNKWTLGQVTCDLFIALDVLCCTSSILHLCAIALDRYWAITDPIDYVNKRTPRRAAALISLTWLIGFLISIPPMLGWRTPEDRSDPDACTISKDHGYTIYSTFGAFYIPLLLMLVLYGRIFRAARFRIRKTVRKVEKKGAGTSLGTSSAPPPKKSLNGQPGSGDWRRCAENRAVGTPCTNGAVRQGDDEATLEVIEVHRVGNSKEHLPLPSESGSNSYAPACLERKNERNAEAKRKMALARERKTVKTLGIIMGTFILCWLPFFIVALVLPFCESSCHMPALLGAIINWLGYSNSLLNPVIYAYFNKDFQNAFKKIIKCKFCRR

In the case of `COc1ccc2c(c1O)CN1CCc3cc4c(cc3[C@@H]1C2)OCO4` [l-THBr, levo-tetrahydroberberrubine], the EC50 in experiment [1] is 235 nM. Further, the Average inhibition percentage is 1.79% in [2]; -6.94% in the experiment with GABA-B; 77.61% with Dopamine, D3 (radioligand [3H]7-OH-DAPT); 54.82% in the experiment with Serotonin, 5HT7 (h) (radioligand [3H]LSD); 21.26% in experiment [4]; 8.8% in the experiment with Dopamine Transporter. For the same molecule, the Average inhibition percentage in the experiment with Serotonin Transporter was determined as 34.43%; in the experiment on Serotonin, 5HT2A, 40.90%; in the experiment on GABA A, Agonist Site, 7.89%; with Serotonin, 5HT5A (h) it was 23.79%; in [5], 6.41%; with Serotonin, 5HT1D it was 42.28%. The Activity entry with Dopamine, D3 is reported as “Yes (Significant binding affinity of l-THBr was defined as greater than 50% inhibition of ligand binding)”; with Serotonin, 5HT7 (h), “Yes (Significant binding affinity of l-THBr was defined as greater than 50% inhibition of ligand binding)”. Moreover, 5.26 nM corresponded to half-maximal inhibition in [3] (IC50). Further, in experiment [3], the “dose-dependent increase in [35S]GTPγS binding (agonist effect)” value is recorded as “but not l-THBr induced a dose-dependent increase”. Further, in the experiment on male CD-1 ICR mice (l-THBr 5 mg/kg i.p. + WAY100635 3 mg/kg i.p. given 15 min earlier), the “anxiolytic-like effects (open arm entries and time) on co-administration of 5-HT1A antagonist WAY100635” value is on record as “significantly reversed”. In addition, the “ratio of entries into the open arms” value with male CD-1 ICR mice (setting [6]) is given as “increased”. Further, the “ratio of time spent in the open arms” value in the experiment with male CD-1 ICR mice (setting [6]) was “increased”.
